This is an account of results in ChEMBL document CHEMBL1155244, “Identification of a bioactive compound isolated from Brazilian propolis type 6” (Bioorg Med Chem, 2009).

As usually defined, the IC50 is the concentration needed to halve the response being measured. The term MBC denotes the smallest concentration meeting the test's criterion for killing. What is called MIC is the lowest concentration that inhibits growth of the organism. A higher MIC goes with a less susceptible organism.

≈ marks a conversion by molar mass, not a printed value.

The test system of experiment [1] is HeLa. Nature of the experiment: Cytotoxicity against human HeLa cells after 24 to 48 hrs by MTT assay. Type of experiment: functional, cell-based. On the technique in general: Tetrazolium assays rely on reduction of a dye to a coloured formazan, in cell work by metabolically active cells.
Experiment [2] deals with Staphylococcus aureus. Nature of the experiment: Antibacterial activity against Staphylococcus aureus 25923 after 24 hrs by agar diffusion method. It is filed as functional. The note with it: Staphylococcus aureus, 25923, 24 h. For orientation: In agar diffusion tests the substance spreads into inoculated agar from a disc or well.
The subject of experiment [3] is Streptococcus sobrinus. Nature of the experiment: Antibacterial activity against Streptococcus sobrinus 6715 assessed as total biofilm adherence inhibition after 18 hrs by microtechnique. It is filed as functional.
The test system of experiment [4] is Actinomyces naeslundii. In words: Antimicrobial activity against Actinomyces naeslundii 12104 after 24 hrs by agar diffusion method. It is filed as functional. The conditions noted are these: Actinomyces naeslundii, 12104, 24 h.
Experiment [5] concerns Streptococcus mutans. Nature of the experiment: Antibacterial activity against Streptococcus mutans UA159 after 24 hrs by agar diffusion method. Type of experiment: functional. The conditions noted are these: UA159, 24 h.
For experiment [6], the system named is Streptococcus oralis. In words: Antibacterial activity against Streptococcus oralis PB182 after 24 hrs by agar diffusion method. It is filed as functional. The conditions noted are these: PB182, 24 h.
Experiment [7] deals with Streptococcus sobrinus. Nature of the experiment: Antibacterial activity against Streptococcus sobrinus 6715 after 24 hrs by agar diffusion method. It is filed as functional. The note with it: Streptococcus sobrinus, 6715, 24 h.
Experiment [8] deals with Streptococcus mutans. In words: Antibacterial activity against Streptococcus mutans UA159 assessed as total biofilm adherence inhibition after 18 hrs by microtechnique. It is filed as functional.
Experiment [9] deals with Streptococcus gordonii. Nature of the experiment: Antibacterial activity against Streptococcus gordonii 10558 after 24 hrs by agar diffusion method. It is filed as functional. The note with it: Streptococcus gordonii, 10558, 24 h.

Take `CC(C)=CCC1=C(O)[C@@]2(C(=O)c3ccccc3)C(=O)[C@](CC=C(C)C)(C[C@H](CC=C(C)C)C2(C)C)C1=O`: in experiment [1], the half-inhibitory concentration (IC50) amounted to 3300 nM. This lies in the single-digit micromolar range.
Take `CC(C)=CC[C@H]1C[C@@]2(CC=C(C)C)C(=O)[C@](C(=O)c3ccccc3)(C(=O)C3=C2O[C@H](C(C)(C)O)C3)C1(C)C` [HYPERIBONE A]: inhibition in experiment [1] was half-maximal at 176 nM (IC50). Also, the minimal bactericidal concentration (MBC) was found to be 5.85 µg/mL (≈ 11.3 µM) in [2]; 6.6 µg/mL (≈ 12.7 µM) in experiment [4]; 53 µg/mL (≈ 102 µM) in experiment [5]; 26 µg/mL (≈ 50.1 µM) in experiment [6]; 53 µg/mL (≈ 102 µM) in experiment [7]; 26 µg/mL (≈ 50.1 µM) in experiment [9]. Moreover, the minimal inhibitory concentration (MIC) in experiment [2] is 0.73 µg/mL (≈ 1.41 µM); in experiment [4], 1.65 µg/mL (≈ 3.18 µM); in experiment [5] it was 3.3 µg/mL (≈ 6.36 µM); in [6], 1.65 µg/mL (≈ 3.18 µM); in experiment [7] it was 3.3 µg/mL (≈ 6.36 µM); in [9], 1.65 µg/mL (≈ 3.18 µM). Besides, the Activity in experiment [3] and in [8] was 1.65 µg/mL in each case.
